Patent US8729083B2, “Pyrazole compounds for controlling invertebrate pests” (BASF SE, priority 2008, dated 2014)

Key:
Type in all cases: in vivo
Anthonomus grandis = assay: Boll weevil (Anthonomus grandis), eggs on insect diet in microtiter plates; details: 120 h, test solution 2500 mg/L, 20 μl sprayed onto diet, 5 days, read-out: mortality (egg and larval)
Procedure: II.6 Boll Weevil (Anthonomus grandis)
The compounds were formulated in 75:25 (vol:vol) water:DMSO.
For evaluating control of boll weevil (Anthonomus grandis) the test unit consisted of 24-well-microtiter plates containing an insect diet and 20-30 A. grandis eggs. Different concentrations of formulated compounds were sprayed onto the insect diet at 20 μl, using a custom built micro atomizer, at two replications. After application, the microtiter plates were incubated at 23±1° C. and 50±5% relative humidity for 5 days. Egg and larval mortality was then visually assessed.

Dichromothrips Corbetti = assay: Vanda/orchid thrips (Dichromothrips corbetti), dipped orchid petals; details: after 72 hours, read-out: mortality in comparison with untreated controls
Procedure: II.11 Activity Against Vanda/Orchid Thrips (Dichromothrips Corbetti)
The active compounds were formulated as a 50:50 (vol:vol) acetone:water solution. Surfactant (Alkamuls EL 620) was added at the rate of 0.1% (vol/vol). Vanda orchids petals were cleaned, washed and air dried prior to spraying. Petals were dipped into the test solution for 3 seconds, air dried, placed inside a resealable plastic and inoculated with 20 adults. The treated petals were kept inside the holding room at 28-29° C. and relative humidity of 50-60%. Percent mortality was recorded after 72 hours.

Myzus persicae [1] = assay: Green peach aphid (Myzus persicae, mixed life stages), method b: electrostatic spray on bell pepper; details: 120 h, sprayed, after 5 days, read-out: mortality in comparison with untreated controls
Procedure: II.2 Green Peach Aphid (Myzus persicae, Mixed Life Stages)
(§1) The active compounds were formulated in cyclohexanone as a 10,0000 ppm solution supplied in 1.3 ml ABgene® tubes. These tubes were inserted into an automated electrostatic sprayer equipped with an atomizing nozzle and they served as stock solutions for which lower dilutions were made in 50% acetone:50% water (v/v). A nonionic surfactant (Kinetic®) was included in the solution at a volume of 0.01% (v/v).
Bell pepper plants at the first true-leaf stage were infested prior to treatment by placing heavily infested leaves from the main colony on top of the treatment plants. Aphids were allowed to transfer overnight to accomplish an infestation of 30-50 aphids per plant and the host leaves were removed. The infested plants were then sprayed by an automated electrostatic plant sprayer equipped with an atomizing spray nozzle. The plants were dried in the sprayer fume hood, removed, and then maintained in a growth room under fluorescent lighting in a 24-hr photoperiod at 25° C. and 20-40% relative humidity. Aphid mortality on the treated plants, relative to mortality on untreated control plants, was determined after 5 days.

Myzus persicae [2] = assay: Green peach aphid (Myzus persicae) through systemic means, artificial diet under membrane; details: 72 h, pipetted into aphid diet, 3 days, read-out: mortality in comparison with untreated controls
From the text: II.9 Activity Against Green Peach Aphid (Myzus persicae)
For evaluating control of green peach aphid (Myzus persicae) through systemic means the test unit consisted of 96-well-microtiter plates containing liquid artificial diet under an artificial membrane.
The compounds were formulated using a solution containing 75% v/v water and 25% v/v DMSO. Different concentrations of formulated compounds were pipetted into the aphid diet, using a custom built pipetter, at two replications. After application, 5 to 8 adult aphids were placed on the artificial membrane inside the microtiter plate wells The aphids were then allowed to suck on the treated aphid diet and incubated at about 23+1° C. and about 50+5% relative humidity for 3 days. Aphid mortality and fecundity was then visually assessed.

Aphis gossypii = assay: Cotton aphid (Aphis gossypii, mixed life stages), method b: electrostatic spray; details: 120 h, sprayed, after 5 days, read-out: mortality in comparison with untreated controls
Procedure: II.1 Cotton Aphid (Aphis gossypii, Mixed Life Stages)
as §1
Cotton plants at the cotyledon stage were infested with aphids prior to treatment by placing a heavily infested leaf from the main aphid colony on top of each cotyledon. Aphids were allowed to transfer overnight to accomplish an infestation of 80-100 aphids per plant and the host leaf was removed. The infested plants were then sprayed by an automated electrostatic plant sprayer equipped with an atomizing spray nozzle. The plants were dried in the sprayer fume hood, removed from the sprayer, and then maintained in a growth room under fluorescent lighting in a 24 hr photoperiod at 25° C. and 20-40% relative humidity. Aphid mortality on the treated plants, relative to mortality on untreated control plants, was determined after 5 days.

Megoura viciae = assay: Vetch aphid (Megoura viciae), bean leaf disks in microtiterplates; details: foliar, 144 h, test solution 2500 mg/L, leaf disks sprayed with 2.5 μl, 6 days
Procedure: II.5 Vetch Aphid (Megoura viciae)
The active compounds were formulated in 1:3 (vol:vol) DMSO:water with different concentrations of formulated compounds.
Bean leaf disks were placed into microtiterplates filled with 0.8% agar-agar and 2.5 ppm OPUS™. The leaf disks were sprayed with 2.5 μl of the test solution and 5 to 8 adult aphids were placed into the microtiterplates which were then closed and kept at 23±1° C. and 50±5% relative humidity under fluorescent light for 6 days. Mortality was assessed on the basis of vital, reproduced aphids. Aphid mortality and fecundity was then visually assessed.

Aphis craccivora = assay: Cowpea aphid (Aphis craccivora), spray on potted cowpea plants; details: sprayed, population reduction assessed after 24, 72 and 120 hours, read-out: mortality in comparison with untreated controls
Procedure: II.3 Cowpea Aphid (Aphis craccivora)
The active compounds were formulated in 50:50 (vol:vol) acetone:water. The test solution was prepared at the day of use.
Potted cowpea plants colonized with 100-150 aphids of various stages were sprayed after the pest population had been recorded. Population reduction was assesed after 24, 72, and 120 hours.

`Cc1c(C(=O)Nc2ccnnc2)cnn1CC(F)(F)F` [Compound 1, 5-Methyl-1-(2,2,2-trifluoroethyl)-1H-pyrazole-4-carboxylic acid pyridazin-4-ylamide] was tested, and the mortality at 2500 µg/mL (Anthonomus grandis) was ≥ 50%, the mortality at 500 ppm (Dichromothrips Corbetti) was ≥ 50% and the mortality at 300 ppm (Myzus persicae [1]) was ≥ 75%. For the same molecule, the mortality at 2500 ppm (Myzus persicae [2]) was 100%, the mortality at 300 ppm (Aphis gossypii) was ≥ 75% and the mortality at 2500 µg/mL (Megoura viciae) was ≥ 90%. The mortality at 300 ppm (Aphis craccivora) was ≥ 90%.
